Source: patent US9962369B2, “Methods and compositions for transdermal delivery” (SPRAYABLE HOLDINGS, INC., priority 2014, dated 2018)

Assay: Transdermal delivery of melatonin: plasma level of melatonin after applying composition to skin of a subject
Details: control 2.0 ml of […] melatonin suspension in water, plasma level at 1, 2, 4, 8 hours
[1] = 0.3 mL of 7% helper ester + 1% melatonin in water on skin of the back (20 cm×20 cm)

CCCCCOC(=O)[C@@H](N)Cc1ccc(O)cc1 [Tyrosine pentyl ester]
transdermal delivery of melatonin compared to control composition (A) [1]: more efficient and effective transdermal delivery of melatonin

CC(C)OC(=O)[C@@H](N)Cc1ccc(O)cc1 [Tyrosine isopropyl ester]
transdermal delivery of melatonin compared to control composition (A) [1]: more efficient and effective transdermal delivery of melatonin

CC(C)OC(=O)[C@@H]1CCCN1 [Proline isopropyl ester]
transdermal delivery of melatonin compared to control composition (A) (0.60 mL of 7% helper ester + 0.5% melatonin in water on skin of the back (20 cm×20 cm)): more efficient and effective transdermal delivery of melatonin
